Assay results as given in patent US20140148493A1, “Agricultural and Horticultural Insecticide Composition and Method for Using the Same” (NIHON NOHYAKU CO., LTD., priority 2011, published 2014).

Assays:
Assay type in all cases: in vivo
[1] = system: Plutella xylostella; assay: Field test of insecticidal effect on Plutella xylostella (foliar application, Chinese kale); settings: flubendiamide 11.3 and/or tolfenpyrad 60 g a.i./ha; for Control effect (%) 4DAT5 / Number of larvae per plant 4DAT5: 4 days after the 5th treatment; for Number of larvae per plant 4DAT5 / Number of larvae per plant 4DAT6: 4-day intervals, Chinese kale field; for Control effect (%) 4DAT6 / Number of larvae per plant 4DAT6: 4 days after the 6th treatment
Protocol: (§1) In an experimental Chinese kale (Brassica oleracea var. acephala) field (sized 4 m×5 m and planted with 800 plants per plot), foliar application was conducted with a water-diluted agrochemical solution (an amount equivalent to 750 L/ha) containing a predetermined dose of a flubendiamide 20% water-dispersible granule and/or a predetermined dose of a tolfenpyrad 15% emulsifiable concentrate at 4-day intervals, 8 times in total. In plots of Plutella xylostella or Spodoptera litura, 20 plants per plot were chosen at random, the number of surviving larvae was measured before the agrochemical treatment, at 4 days after the 5th agrochemical treatment and at 4 days after the 6th agrochemical treatment. With reference to the number of larvae before the agrochemical treatment, the control effect was calculated according to the formula shown below. In addition, the expected value for the control effect of the mixed use was calculated according to Colby's equation shown below. […] As for plots of Spodoptera exigua, the calculation was performed based on the measurements at 4 days after the 7th agrochemical treatment and at 4 days after the 8th agrochemical treatment.
(§2) Control effect=100−{(Ta×Cb)/(Tb×Ca)}×100
(§3) Ta=the number of larvae after the agrochemical treatment in a treatment plot
(§4) Tb=the number of larvae before the agrochemical treatment in a treatment plot
(§5) Ca=the number of larvae after the agrochemical treatment in a non-treatment plot
(§6) Cb=the number of larvae before the agrochemical treatment in a non-treatment plot
(§7) E(expected value)=(X+Y)−(X−Y/100)
(§8) X=the control effect of flubendiamide alone
(§9) Y=the control effect of tolfenpyrad alone
(§10) In each table, 4DAT5, 4DAT6, 4DAT7 and 4DAT8 are as defined below, and the a. i. stands for active ingredient.
(§11) 4DAT5: the measurement at 4 days after the 5th agrochemical treatment
(§12) 4DAT6 the measurement at 4 days after the 6th agrochemical treatment

[2] = system: Spodoptera exigua; assay: Field test of insecticidal effect on Spodoptera exigua (foliar application, Chinese kale); settings: flubendiamide 11.3 and/or tolfenpyrad 60 g a.i./ha; for Control effect (%) 4DAT7 / Number of larvae per plant 4DAT7: 4 days after the 7th treatment; for Number of larvae per plant 4DAT7 / Number of larvae per plant 4DAT8: 4-day intervals, Chinese kale field; for Control effect (%) 4DAT8 / Number of larvae per plant 4DAT8: 4 days after the 8th treatment
Protocol: as §1, §2, §3, §4, §5, §6, §7, §8, §9, §10
4DAT7 the measurement at 4 days after the 7th agrochemical treatment
4DAT8 the measurement at 4 days after the 8th agrochemical treatment

[3] = system: Spodoptera litura; assay: Field test of insecticidal effect on Spodoptera litura (foliar application, Chinese kale); settings: flubendiamide 11.3 and/or tolfenpyrad 60 g a.i./ha; for Control effect (%) 4DAT5 / Number of larvae per plant 4DAT5: 4 days after the 5th treatment; for Number of larvae per plant 4DAT5 / Number of larvae per plant 4DAT6: 4-day intervals, Chinese kale field; for Control effect (%) 4DAT6 / Number of larvae per plant 4DAT6: 4 days after the 6th treatment
Protocol: as §1, §2, §3, §4, §5, §6, §7, §8, §9, §10, §11, §12

| SMILES | Control effect (%) 4DAT5 [1] [%] | Number of larvae per plant 4DAT5 [1] | Control effect (%) 4DAT6 [1] [%] | Number of larvae per plant 4DAT6 [1] | Control effect (%) 4DAT7 [2] [%] | Number of larvae per plant 4DAT7 [2] | Control effect (%) 4DAT8 [2] [%] | Number of larvae per plant 4DAT8 [2] | Control effect (%) 4DAT5 [3] [%] | Number of larvae per plant 4DAT5 [3] | Control effect (%) 4DAT6 [3] [%] | Number of larvae per plant 4DAT6 [3] |
| --- | --- | --- | --- | --- | --- | --- | --- | --- | --- | --- | --- | --- |
| Cc1cc(C(F)(C(F)(F)F)C(F)(F)F)ccc1NC(=O)c1cccc(I)c1C(=O)NC(C)(C)CS(C)(=O)=O [Flubendiamide, 3-iodo-N′-(2-mesyl-1,1-dimethylethyl)-N-{4-[1,2,2,2-tetrafluoro-1-(trifluoromethyl)ethyl]-o-tolyl}phthalamide] | 53.5 | 0.24 | 70.0 | 0.13 | 37.6 | 0.03 | 62.2 | 0.04 | 3.9 | 0.43 | 37.8 | 0.31 |
| CCc1nn(C)c(C(=O)NCc2ccc(Oc3ccc(C)cc3)cc2)c1Cl [Tolfenpyrad, 4-chloro-3-ethyl-1-methyl-N-[4-(p-tolyloxy)benzyl]pyrazole-5-carboxamide] | 29.4 | 0.38 | 58.0 | 0.19 | 0 | 0.06 | 0 | 0.13 | 0 | 0.25 | 0 | 0.53 |
